From patent publication US7662864B2, “Solution polymerization processes to prepare a polymer that degrades to release a physiologically active agent” (Rutgers, The State University of New Jersey, priority 2003, dated 2010)
Read-outs that look alike come from different tables or passages of the source.

What was measured:
[1] = test system: chronically-inflamed tissue; details: cited from earlier work
[2] = Plasma diflunisal in rats after subcutaneous polydiflunisal microspheres; type: in vivo; details: single oral dose
Description: Processes for making nanoparticle formulations are also known in the art, and need not be fully described in this patent. The surface eroding property of polymers such as polydiflunisal makes for solid, non-porous particles, e.g. nano- and micro-spheres, useful for sustained drug delivery, and their release duration may be controlled by varying particle diameter, e.g. larger microparticles biodegrade more slowly than smaller ones. Nano- and microparticles for pharmaceutical formulations may be designed to deliver an agent(s) or compound(s) incorporated into the polymer backbone and optionally an agent(s) blended, appended to, or dispersed in the polymer. […] Microparticle formulations of about 1, 2, 5, 7.5, 10, 25, 50 to about 10, 15, 30, 50, 75, 100, 250 μm are suitable for use in a pharmaceutical, veterinary or other type of formulations. Similarly, nanoparticle formulations may be administered for various applications, having a particle size about 1, 2, 5, 10 to about 15, 20, 30, 50, 100, 250, 500 nm, or various ranges between any two of these values. […] While the injection of a drug or biological agent carried by a polymer of the invention, e.g. a polyNSAID, may be expected to generate significant drug, e.g. NSAID, concentrations in tissues near the injection site, their systemic levels in most cases will remain less than about […], which are far below therapeutic levels. […]

[3] = cited from earlier work
[4] = cited from earlier work; for Plasma Levels (Anti-Inflammatory Effectiveness): Clinical Use
Rat = details: in vivo; cited from earlier work

Compound: CN1CC[C@]23c4c5ccc(O)c4O[C@H]2[C@@H](O)C=C[C@H]3[C@H]1C5 [morphine]
- pain relief ([1]; 1 mg injected into chronically-inflamed gum tissue): profound pain relief
- pain relief ([1]; 3 mg intra-articular injection in RA patients): pain relief similar to that of 4 mg dexamethasone

Compound: O=C(O)c1cc(-c2ccc(F)cc2F)ccc1O [Diflunisal, 5-(2,4-difluorophenyl)-salicylic acid]
- course of drug level [2]: declined rapidly
- Water Solubility [3]: Very Low
- Plasma Levels (Anti-Inflammatory Effectiveness) [4]: 50 to 190 µg/mL
- No. Metabolites ([4]; in vivo): 2
- Plasma half-life ([4]; in vivo): 8 to 12 h
- Where Metabolized ([4]; in vivo): Liver, Intestine

Compound: O=C(O)CCCCCCCCC(=O)O [Sebacic Acid]
- Rat Oral LD50 (Rat): 14,470 mg/kg

Compound: O=C(O)c1ccccc1O [Salicylic Acid]
- Water Solubility [3]: High
- Plasma Levels (Anti-Inflammatory Effectiveness) [4]: 150 to 300 µg/mL
